Assay results reported in patent publication EP1053246B1, “BETA-SHEET MIMETICS AND METHODS RELATING TO THE USE THEREOF” (MOLECUMETICS, LTD., priority 1998, dated 1999).
Where two headings read alike, the source gives them in different places. Values belong to the compound of their own block, whether it stands above or below them.

Columns and labels:
[1] = target: T1, human Factor VIIa (FVIIa) (Homo sapiens, UniProt P08709); test: Factor VII assay: hydrolysis of the mimetic as proteolytic substrate; assay type: biochemical; settings: relative to (D)FPR-PNA control
T1 construct: human Factor VIIa (FVIIa)
T1 sequence (P13726 33-295 partner, one chain of several): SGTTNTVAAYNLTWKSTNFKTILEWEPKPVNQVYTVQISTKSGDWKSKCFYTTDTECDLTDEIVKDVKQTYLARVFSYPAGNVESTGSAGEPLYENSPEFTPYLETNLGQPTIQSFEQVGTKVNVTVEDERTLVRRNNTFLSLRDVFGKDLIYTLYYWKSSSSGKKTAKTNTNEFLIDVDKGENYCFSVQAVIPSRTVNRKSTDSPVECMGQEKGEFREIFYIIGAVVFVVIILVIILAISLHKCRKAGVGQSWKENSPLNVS
Protocol: (§1) Both the thrombin and Factor VII assays of this experiment were carried out at 37°C using a Hitachi UV/Vis spectrophotometer (model U-3000). Structure (11b) was dissolved in deionized water. The concentration was determined from the absorbance at 342 nm. […] Initial velocities were calculated from the initial linear portion of the reaction progress curve. Kinetic parameters were determined by unweighted nonlinear least-squares fitting of the simple Michaelis-Menten equation to the experimental data using GraFit (Version 3.0, Erithacus Software Limited).
For the Factor VII assay, pH 8.0 Tris buffer (0.05 M Tris, 5 mM CaCl2, 0.15 M NaCl, 0.1% TWEEN 20, 0.1% BSA) was used. 10 µl of 20 µM human Factor VIIa (FVIIa) and 22 µM of human tissue factor (TF) was brought to assay buffer to make 160 nM FVIIa and TF solutions, respectively. […] The initial 3 minutes reaction progress curves were recorded. […] The kcat/KM was calculated from the slope and found to be 17,500 M^-1s^-1.
(§2) In both the thrombin and Factor VII assay of this experiment, (D)FPR-PNA was run as a control.

bovine thrombin = target: T2, bovine thrombin (Bos taurus, UniProt P00735); test: thrombin assay: hydrolysis of the mimetic as proteolytic substrate; assay type: biochemical
T2 construct: bovine thrombin (from Sigma); purchased Sigma
Protocol: as §1
For the thrombin assay, experiments were performed in pH 8.4 Tris buffer (Tris, 0.05M; NaCl, 0.15M). 6.4 NIH units of bovine thrombin (from Sigma) were dissolved into 10 ml of the assay buffer to yield 10 nM thrombin solution. […] The first two minutes of the reactions were recorded for initial velocity determination.
as §2

control plasma = test: prothrombin time (PT) in control plasma; assay type: biochemical
Protocol: Then 200 µl of prewarmed (at 37°C for ∼10 minutes) thromboplastin with calcium (from Sigma) was rapidly added into the plasma sample. […]

bovine factor Xa = target: T3, bovine factor Xa (Bos taurus, UniProt P00743); test: Factor X inhibition assay (IC50, Example 4); assay type: biochemical; settings: Factor X; read-out: IC50
T3 construct: bovine factor Xa (from Sigma); purchased Sigma
T3 sequence (P00743 41-180 limits assumed): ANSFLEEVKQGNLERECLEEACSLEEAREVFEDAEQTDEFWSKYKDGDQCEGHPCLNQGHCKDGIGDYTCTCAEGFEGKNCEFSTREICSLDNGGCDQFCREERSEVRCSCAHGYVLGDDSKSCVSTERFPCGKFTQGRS
T3 sequence (P00743 234-492 limits assumed): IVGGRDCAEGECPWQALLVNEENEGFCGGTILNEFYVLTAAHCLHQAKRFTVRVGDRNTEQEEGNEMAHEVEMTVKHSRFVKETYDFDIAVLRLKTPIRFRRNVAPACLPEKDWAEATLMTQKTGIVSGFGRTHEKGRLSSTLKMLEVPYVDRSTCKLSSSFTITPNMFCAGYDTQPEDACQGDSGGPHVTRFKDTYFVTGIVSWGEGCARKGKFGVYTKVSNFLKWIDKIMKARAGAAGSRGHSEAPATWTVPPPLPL
Protocol: All inhibition assays of this experiment were performed at room temperature in 96 well microplates using a Bio-Rad microplate reader (Model 3550). […] This solution (2.05 mM) served as the stock solution for all the inhibition assays. The hydrolysis of chromogenic substrates was monitored at 405 nm. The reaction progress curves were recorded by reading the plates typically 90 times with 30 seconds to 2 minute intervals. The initial rate were determined by unweighted nonlinear least-squares fitting to a first order reaction in GraFit.
In the Factor X assay, buffer and substrate are the same as used for thrombin assay. A 1:100 dilution was made into pH 8.4 Tris buffer to serve as the first point. Seven dilutions with a dilution factor of 2 were made. The assay protocol is the same as for thrombin except 25 nM of bovine factor Xa (from Sigma) in pH 8.4 Tris buffer was used instead of thrombin.

tryptase = tryptase inhibition assay (Ki, Example 5); assay type: biochemical, human lung
Protocol: (§3) The reaction progress curves were recorded by reading the plates, typically 60 times with 30 second to 2 minute intervals. Initial rates were determined by unweighted nonlinear least-squares fitting to a first order reaction in GraFit (Erithacus Software Limited, London, England).
Tryptase: 0.1 M tris, 0.2 M NaCl, 0.1 mg/ml heparin, pH=8.0 was utilized as buffer. […] From this point seven more dilutions were made for the assay.

Factor X [2] = test: Factor X inhibition assay (Ki), source of enzyme not stated; assay type: biochemical; settings: ratio of Ki of an enzyme to the Ki of thrombin
thioredoxin = test: block of insulin disulfide reduction by thioredoxin (turbidity at 650 nm); assay type: biochemical; settings: 8 µM thioredoxin, 0-100 µM compound, 60 minutes
factor X [3] = target: T4, factor X (Bos taurus, UniProt P00743); test: Factor X inhibition assay (Ki, Example 5), bovine plasma enzyme; assay type: biochemical; settings: footnote e: bovine plasma
T4 construct: bovine factor Xa (from Sigma); from tissue; host or cells: bovine plasma
T4 sequence (P00743 41-180 limits assumed): as the sequence (P00743 41-180 limits assumed) above
T4 sequence (P00743 234-492 limits assumed): as the sequence (P00743 234-492 limits assumed) above
Protocol: All inhibition assays were performed at room temperature in 96 well microplates using Bio-Rad microplate reader (Model 3550). […] The hydrolysis of chromogenic substrates was monitored at 405 nm. The reaction progress curves were recorded by reading the plates, typically 60 times with 30 second to 2 minute intervals. Initial rates were determined by unweighted nonlinear least-squares fitting to a first order reaction in GraFit (Erithacus Software Limited, London, England).
Factor X: Buffer and substrate were the same as used for thrombin assay. A 1:100 dilution was made -in the pH8.0 tris buffer to serve as the first point. Seven more dilutions from the first were made for the assay.

factor VII = target: T5, factor VII (Homo sapiens, UniProt P08709); test: Factor VII inhibition assay (Ki, Example 5); assay type: biochemical
T5 construct: human Factor VIIa (FVIIa)
T5 sequence (P08709 61-212 limits assumed): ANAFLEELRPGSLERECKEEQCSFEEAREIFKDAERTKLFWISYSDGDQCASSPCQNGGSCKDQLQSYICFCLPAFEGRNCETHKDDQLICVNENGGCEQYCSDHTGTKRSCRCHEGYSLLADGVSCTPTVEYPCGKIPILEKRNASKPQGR
T5 sequence (P08709 213-466 limits assumed): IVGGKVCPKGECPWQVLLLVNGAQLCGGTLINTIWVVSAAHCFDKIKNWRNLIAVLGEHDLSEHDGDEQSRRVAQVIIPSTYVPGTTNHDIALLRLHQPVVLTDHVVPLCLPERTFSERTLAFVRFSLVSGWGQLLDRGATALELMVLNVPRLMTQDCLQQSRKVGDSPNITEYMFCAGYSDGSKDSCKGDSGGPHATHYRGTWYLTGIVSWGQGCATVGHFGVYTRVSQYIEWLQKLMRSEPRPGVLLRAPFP
Protocol: as §3
From this concentration point seven more sequential dilutions were made for the assay.

trypsin = target: T6, trypsin (Bos taurus, UniProt P00760); test: trypsin inhibition assay (Ki, Example 5); assay type: biochemical, bovine pancreas
T6 construct: from tissue; host or cells: bovine pancreas
T6 sequence (P00760 24-246): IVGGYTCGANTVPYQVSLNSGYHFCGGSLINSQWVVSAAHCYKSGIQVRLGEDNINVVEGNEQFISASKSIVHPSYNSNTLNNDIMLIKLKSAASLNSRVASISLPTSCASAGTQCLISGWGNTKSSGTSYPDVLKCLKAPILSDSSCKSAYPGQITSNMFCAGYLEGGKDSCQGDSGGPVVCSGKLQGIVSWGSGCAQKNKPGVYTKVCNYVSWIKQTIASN
Protocol: as §3

thrombin = thrombin (Bos taurus, UniProt P00735); test: thrombin inhibition assay (Ki, Example 5); assay type: biochemical, bovine plasma; design: Thrombin: N-p-tosyl-Gly-Pro-Arg-pNA (from Sigma) was used at 0.5 mM concentration; from tissue; host or cells: bovine plasma
Protocol: as §3
Seven sequential dilutions were made from the first point for the assay.

t-PA = t-PA (Homo sapiens, UniProt P00750); test: t-PA inhibition assay (Ki, Example 5); assay type: biochemical
Sequence of t-PA (P00750 36-562): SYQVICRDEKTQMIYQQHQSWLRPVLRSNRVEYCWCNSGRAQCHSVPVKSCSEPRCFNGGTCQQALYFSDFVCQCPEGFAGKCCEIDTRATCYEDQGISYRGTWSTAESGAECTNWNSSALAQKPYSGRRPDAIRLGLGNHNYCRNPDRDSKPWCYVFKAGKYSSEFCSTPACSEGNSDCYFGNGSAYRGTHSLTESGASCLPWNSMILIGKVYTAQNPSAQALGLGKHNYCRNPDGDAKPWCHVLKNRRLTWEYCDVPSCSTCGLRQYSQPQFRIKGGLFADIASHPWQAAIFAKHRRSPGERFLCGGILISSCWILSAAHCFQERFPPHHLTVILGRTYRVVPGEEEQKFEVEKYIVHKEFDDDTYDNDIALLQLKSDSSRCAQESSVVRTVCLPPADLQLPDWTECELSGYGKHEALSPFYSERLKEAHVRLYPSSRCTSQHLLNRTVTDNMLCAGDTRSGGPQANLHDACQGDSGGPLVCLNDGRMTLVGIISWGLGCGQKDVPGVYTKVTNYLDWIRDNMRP
Protocol: as §3

Plasmin = Plasmin (Bos taurus, UniProt P06868); test: plasmin inhibition assay (Ki, Example 5); assay type: biochemical, bovine plasma; design: Plasmin: Buffer (see thrombin assay); from tissue; host or cells: bovine plasma
Sequence of Plasmin (P06868 104-583 limits assumed): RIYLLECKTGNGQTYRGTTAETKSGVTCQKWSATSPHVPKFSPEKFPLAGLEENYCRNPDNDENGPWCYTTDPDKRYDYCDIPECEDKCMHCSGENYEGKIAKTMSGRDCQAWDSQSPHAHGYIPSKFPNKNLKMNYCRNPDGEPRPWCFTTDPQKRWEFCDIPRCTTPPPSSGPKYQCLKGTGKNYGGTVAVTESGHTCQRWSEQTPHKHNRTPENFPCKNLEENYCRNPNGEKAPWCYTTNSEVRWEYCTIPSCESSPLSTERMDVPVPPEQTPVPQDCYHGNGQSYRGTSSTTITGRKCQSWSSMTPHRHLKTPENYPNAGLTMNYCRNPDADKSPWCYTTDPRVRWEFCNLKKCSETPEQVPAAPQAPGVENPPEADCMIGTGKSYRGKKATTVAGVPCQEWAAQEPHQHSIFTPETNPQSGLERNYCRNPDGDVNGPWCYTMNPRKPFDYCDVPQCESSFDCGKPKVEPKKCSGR
Sequence of Plasmin (P06868 584-812 limits assumed): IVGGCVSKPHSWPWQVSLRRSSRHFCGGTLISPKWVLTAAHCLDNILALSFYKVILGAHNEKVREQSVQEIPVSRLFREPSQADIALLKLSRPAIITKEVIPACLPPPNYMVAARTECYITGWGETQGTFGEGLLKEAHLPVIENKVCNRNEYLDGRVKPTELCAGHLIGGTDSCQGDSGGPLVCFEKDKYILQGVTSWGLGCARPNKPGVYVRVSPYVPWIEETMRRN
Protocol: as §3

APC = target: T7, APC (Homo sapiens, UniProt P04070); test: activated protein C inhibition assay (Ki, Example 5); assay type: biochemical, human plasma
T7 construct: from tissue; host or cells: human plasma
T7 sequence (P04070 43-197 limits assumed): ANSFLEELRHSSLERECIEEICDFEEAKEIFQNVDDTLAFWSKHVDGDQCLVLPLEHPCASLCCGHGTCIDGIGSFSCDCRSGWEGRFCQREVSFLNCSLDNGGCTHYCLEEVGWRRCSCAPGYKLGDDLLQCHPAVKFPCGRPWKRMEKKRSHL
T7 sequence (P04070 212-461 limits assumed): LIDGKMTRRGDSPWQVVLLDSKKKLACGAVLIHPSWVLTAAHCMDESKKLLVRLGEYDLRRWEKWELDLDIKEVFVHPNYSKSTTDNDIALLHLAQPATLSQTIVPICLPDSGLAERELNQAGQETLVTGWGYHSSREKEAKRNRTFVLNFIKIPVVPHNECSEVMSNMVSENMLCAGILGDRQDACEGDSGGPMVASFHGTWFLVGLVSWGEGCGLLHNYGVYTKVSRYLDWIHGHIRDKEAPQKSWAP

Factor XI = Factor XI (Homo sapiens, UniProt P03951); test: Factor XI inhibition assay (Ki); assay type: biochemical
Sequence of Factor XI (P03951 388-625 limits assumed): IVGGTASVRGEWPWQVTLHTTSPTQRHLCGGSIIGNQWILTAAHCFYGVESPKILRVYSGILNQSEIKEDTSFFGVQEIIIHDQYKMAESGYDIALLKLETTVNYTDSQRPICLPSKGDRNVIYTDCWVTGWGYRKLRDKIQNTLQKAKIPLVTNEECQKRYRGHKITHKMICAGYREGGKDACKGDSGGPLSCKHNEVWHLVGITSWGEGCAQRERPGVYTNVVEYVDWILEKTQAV
Sequence of Factor XI (P03951 19-387 limits assumed): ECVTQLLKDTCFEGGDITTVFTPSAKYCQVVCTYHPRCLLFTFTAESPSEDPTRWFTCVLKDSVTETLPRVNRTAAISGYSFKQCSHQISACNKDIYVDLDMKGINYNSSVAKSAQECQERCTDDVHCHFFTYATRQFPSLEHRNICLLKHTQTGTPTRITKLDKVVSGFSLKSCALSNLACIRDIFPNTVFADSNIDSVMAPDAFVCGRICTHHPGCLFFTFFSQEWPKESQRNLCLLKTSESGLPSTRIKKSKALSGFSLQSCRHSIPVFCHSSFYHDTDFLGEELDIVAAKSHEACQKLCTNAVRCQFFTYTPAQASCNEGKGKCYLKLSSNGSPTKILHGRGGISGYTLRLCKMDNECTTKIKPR

[4] = target: thrombin-thrombomodulin complex (Bos taurus, UniProt P00735); test: thrombin-thrombomodulin complex inhibition assay (Ki); assay type: biochemical; settings: thrombin preincubated with 4 nM thrombomodulin, read-out: Ki (M) T.T.C.
papain = papain (Carica papaya, UniProt P00784); test: papain inhibition assay
Sequence of papain (P00784 134-345): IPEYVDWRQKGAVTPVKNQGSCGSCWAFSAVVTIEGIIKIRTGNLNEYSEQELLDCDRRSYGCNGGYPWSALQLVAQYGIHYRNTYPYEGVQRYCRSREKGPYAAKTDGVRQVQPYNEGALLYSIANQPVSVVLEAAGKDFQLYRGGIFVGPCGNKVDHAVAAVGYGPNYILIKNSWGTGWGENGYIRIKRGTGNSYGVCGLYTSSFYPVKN

leucine aminopeptidase M = target: T8, leucine aminopeptidase M (Sus scrofa, UniProt P15145); test: leucine aminopeptidase M inhibition assay; assay type: biochemical
T8 construct: purchased Sigma
T8 sequence (P15145 whole entry): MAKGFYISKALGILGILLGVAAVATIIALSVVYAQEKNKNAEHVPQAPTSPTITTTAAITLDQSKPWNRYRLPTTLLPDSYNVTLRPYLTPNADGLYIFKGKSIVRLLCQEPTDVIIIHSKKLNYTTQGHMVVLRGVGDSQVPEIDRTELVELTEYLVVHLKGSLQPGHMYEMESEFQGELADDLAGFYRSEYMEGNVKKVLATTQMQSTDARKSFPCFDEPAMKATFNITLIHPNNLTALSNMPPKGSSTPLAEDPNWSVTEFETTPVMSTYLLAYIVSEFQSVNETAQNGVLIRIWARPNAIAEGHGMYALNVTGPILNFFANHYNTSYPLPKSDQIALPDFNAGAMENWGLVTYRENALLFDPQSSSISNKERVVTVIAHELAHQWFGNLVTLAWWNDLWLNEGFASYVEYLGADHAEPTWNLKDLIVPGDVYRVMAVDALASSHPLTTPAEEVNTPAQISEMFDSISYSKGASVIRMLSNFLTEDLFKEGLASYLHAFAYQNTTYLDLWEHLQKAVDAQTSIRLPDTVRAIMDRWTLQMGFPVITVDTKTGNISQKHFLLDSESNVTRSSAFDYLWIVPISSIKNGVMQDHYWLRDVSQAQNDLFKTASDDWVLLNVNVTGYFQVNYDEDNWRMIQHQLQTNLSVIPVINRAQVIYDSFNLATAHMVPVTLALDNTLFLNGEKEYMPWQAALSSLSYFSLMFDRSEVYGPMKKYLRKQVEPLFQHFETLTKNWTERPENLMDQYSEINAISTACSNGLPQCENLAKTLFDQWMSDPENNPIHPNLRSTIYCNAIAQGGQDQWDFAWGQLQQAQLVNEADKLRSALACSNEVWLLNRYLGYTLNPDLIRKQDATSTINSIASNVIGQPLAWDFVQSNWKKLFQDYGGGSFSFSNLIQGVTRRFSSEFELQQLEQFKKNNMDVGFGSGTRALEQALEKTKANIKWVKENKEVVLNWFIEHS

thermolysin = thermolysin (Bacillus thermoproteolyticus, UniProt P00800); test: thermolysin inhibition assay; assay type: biochemical
Sequence of thermolysin (P00800 233-548, species assumed): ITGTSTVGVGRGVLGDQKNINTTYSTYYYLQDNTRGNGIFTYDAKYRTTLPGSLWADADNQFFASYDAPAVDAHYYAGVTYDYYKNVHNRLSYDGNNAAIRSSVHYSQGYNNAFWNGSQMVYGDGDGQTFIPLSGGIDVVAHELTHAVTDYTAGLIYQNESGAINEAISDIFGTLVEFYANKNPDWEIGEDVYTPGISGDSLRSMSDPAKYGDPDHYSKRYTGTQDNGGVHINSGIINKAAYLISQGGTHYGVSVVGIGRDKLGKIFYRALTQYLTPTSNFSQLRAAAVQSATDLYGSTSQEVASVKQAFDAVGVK

[5] = substrate hydrolysis, pH 8.4 Tris buffer, 37°C

- Ki (thrombin): 0.31 nM
Compound: N=C(N)NCCC[C@H](NC(=O)[C@@H]1CCN2CC[C@@](N)(Cc3ccccc3)C(=O)N12)C(=O)C(=O)NCCc1ccc(Cl)cc1 [Structure (39)]

- Ki (thrombin): 0.45 nM
Compound: COc1ccc(CCNC(=O)C(=O)[C@H](CCCNC(=N)N)NC(=O)[C@@H]2CCN3CC[C@@](N)(Cc4ccccc4)C(=O)N23)cc1 [Structure (41)]

- Ki (t-PA): 17200 nM
- Ki (Plasmin): 23800 nM
- Ki (APC): 25600 nM
- Ki (Factor XI): 1240 nM
- Ki (thrombin): 5.4 nM
- Ki [4]: 6.9e-09 M
- Ki (tryptase; read-out: Ki (M) Tryptase): 1.65e-06 M
- Ki (factor VII): 29600 nM
- Ki (trypsin): 52.4 nM
Compound: COC(=O)c1c[nH]c(C(=O)[C@H](CCCNC(=N)N)NC(=O)[C@@H]2CCN3CC[C@@](N)(Cc4ccccc4)C(=O)N23)n1 [Structure (45)]

- Ki (factor X [3]): 1500 nM
- Ki (factor VII): 968 nM
- Ki (trypsin): 1.9 nM
Compound: N=C(N)NCCC[C@H](NC(=O)[C@@H]1CCN2CC[C@@](N)(Cc3ccccc3)C(=O)N12)C(=O)c1nccs1 [Structure (47)]

- Ki (Factor XI): 1730 nM
- Ki (thrombin): 7.25 nM
- Ki (factor VII): 4260 nM
- Ki (trypsin): 37.9 nM
Compound: N=C(N)NC(=O)NC[C@H](NC(=O)[C@@H]1CCN2CC[C@@](N)(Cc3ccccc3)C(=O)N12)C(=O)c1nc2ccccc2s1 [Structure (51)]

The remaining lines, values behind:

Compound: N=C(N)NCCC[C@H](NC(=O)[C@@H]1CCN2CC[C@@](N)(Cc3ccccc3)C(=O)N12)C(=O)Nc1ccc([N+](=O)[O-])cc1 [(11b)]
- Activity compared to the control [1]: 1.38
- Km (bovine thrombin; [5]): 3 µM
- kcat (bovine thrombin; [5]): 50 s⁻¹
- Activity compared to the control (bovine thrombin; thrombin, relative to (D)FPR-PNA control): 0.76

Compound: N=C(N)NCCC[C@H](NC(=O)[C@@H]1CCN2CC[C@@](N)(Cc3ccccc3)C(=O)N12)C(=O)CCl [(13b)]
- PT (control plasma; Concentration 1 pM): 13 s
- PT (control plasma; Concentration 10 pM): 17 s
- PT (control plasma; Concentration 50 pM): 18 s
- PT (control plasma; Concentration 100 pM): 23 s
- PT (control plasma; Concentration 200 pM): 24 s
- PT (control plasma; Concentration 500 pM): 27 s
- PT (control plasma; Concentration 1 nM): 30 s
- PT (control plasma; Concentration 10 nM): 31 s
- PT (control plasma; Concentration 30 nM): 31 s
- PT (control plasma; Concentration 50 nM): 30 s
- PT (control plasma; Concentration 80 nM): 33 s
- IC50 (bovine factor Xa): 385 ± 17 nM

Compound: N=C(N)NCCCC(NC(=O)C1CCC2CCC(N)(Cc3ccccc3)C(=O)N21)C(=O)c1nc2ccccc2s1 (stereo not drawn) [(29b)]
- Selectivity (tryptase; Tryptase, ratio of Ki of an enzyme to the Ki of thrombin): 106
- Ki (tryptase; tryptase, read-out: Ki): 9e-09 M
- Selectivity (Factor X [2]): 227

Compound: N=C(N)NCCC[C@H](NC(=O)[C@@H]1CCCN1C(=O)[C@H](N)Cc1ccccc1)C(=O)CCl [PPACK, (D)FPR-CH2Cl, reference compound]
- PT (control plasma; Concentration 500 pM): 15 s
- PT (control plasma; Concentration 1 nM): 18 s
- PT (control plasma; Concentration 10 nM): 22 s
- PT (control plasma; Concentration 20 nM): 25 s
- PT (control plasma; Concentration 40 nM): 28 s
- PT (control plasma; Concentration 60 nM): 30 s
- PT (control plasma; Concentration 80 nM): 31 s

Compound: CC1=C2[C@H]3OC(=O)[C@@H](C)[C@@H]3CC[C@@]2(C)C=CC1=O [Santonin]
- thioredoxin-induced turbidity of insulin (thioredoxin): did not block thioredoxin-induced turbidity of insulin

Compound: N=C(N)NCCCC(NC(=O)C1CCC2CCC(N)(Cc3ccccc3)C(=O)N21)C(=O)c1nc2ccccc2s1 (stereo not drawn) [Structure (29b)]
- Ki (tryptase; read-out: Ki (M) Tryptase): 9e-09 M

Compound: N=C(N)NCCC[C@H](NC(=O)[C@@H]1CCN2CC[C@@](N)(Cc3ccccc3)C(=O)N12)C(=O)C(=O)NCCc1ccccc1 [Structure (35)]
- Ki (factor X [3]): 345 nM
- Ki (factor VII): 16.4 nM
- Ki (trypsin): 0.027 nM

Compound: N=C(N)NCCC[C@H](NC(=O)[C@@H]1CCN2CC[C@@](N)(Cc3ccccc3)C(=O)N12)C(=O)C(=O)NCc1ccccc1 [Structure (37)]
- Ki (thrombin): 0.0732 nM
- Ki (trypsin): 0.0773 nM

Compound: COC(=O)c1cccc2c1C(=O)N([C@@H](CC(C)C)C(=O)NO)C2=O [Structure (234)]
- IC50 (papain): 8000 nM
- Ki (leucine aminopeptidase M): 11000 nM
- Ki (thermolysin): 6000 nM
